Laboratory results reported in patent US20220281848A1, “PYRAZOLE-SUBSTITUTED PYRROLIDINONES AS HERBICIDES” (FMC Corporation, priority 2019, published 2022).

Test system: plants
Assay: Test D post-emergence, other plants of Tables D2 and D4
Format: in vivo
Conditions: for damage to plant (100=total damage to plant; 0=no damage to plant), ABUTH / damage to plant (100=total damage to plant; 0=no damage to plant), AMARE / damage to plant (100=total damage to plant; 0=no damage to plant), BIDPI / damage to plant (100=total damage to plant; 0=no damage to plant), BRAPL / damage to plant (100=total damage to plant; 0=no damage to plant), CYPES / damage to plant (100=total damage to plant; 0=no damage to plant), DIGSA / damage to plant (100=total damage to plant; 0=no damage to plant), ECHCG / damage to plant (100=total damage to plant; 0=no damage to plant), ELEIN / damage to plant (100=total damage to plant; 0=no damage to plant), EPHHL / damage to plant (100=total damage to plant; 0=no damage to plant), GLXMA / damage to plant (100=total damage to plant; 0=no damage to plant), IPOHE / damage to plant (100=total damage to plant; 0=no damage to plant), ORYSA / damage to plant (100=total damage to plant; 0=no damage to plant), PANMI / damage to plant (100=total damage to plant; 0=no damage to plant), SETFA / damage to plant (100=total damage to plant; 0=no damage to plant), SORVU: post-emergence
Procedure, shortened: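 Damage was rated visually from 0 (none) to 100 (total), at 20 DAA for pre-emergence and 15 d for post-emergence. Plants grew from safener-treated seed in a glasshouse at 24/18° C. or 20/16° C. day/night, 65% humidity, watered twice daily.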

[1] = "Cereals" Postemergent, Rates 130, evaluated after 15 d
[2] = "Cereals" Postemergent, Rates 250, evaluated after 15 d
[3] = "Cereals" Postemergent, Rates 500, evaluated after 15 d

**Q.** What does the source list for CN1CC(c2cc(C(F)(F)F)n(C)n2)C(C(=O)Nc2cccc(F)c2C(F)(F)F)C1=O (racemic) [Compound 19]?
**A.** ALOMY damage rating (100=total damage to plant; 0=no damage to plant) [1]: 0; ALOMY damage rating (100=total damage to plant; 0=no damage to plant) [2]: 0; ALOMY damage rating (100=total damage to plant; 0=no damage to plant) [3]: 30; AVEFA damage rating (100=total damage to plant; 0=no damage to plant) [1]: 0; AVEFA damage rating (100=total damage to plant; 0=no damage to plant) [2]: 10; AVEFA damage rating (100=total damage to plant; 0=no damage to plant) [3]: 40; BEAVA damage rating (100=total damage to plant; 0=no damage to plant) [1]: 0; BEAVA damage rating (100=total damage to plant; 0=no damage to plant) [2]: 10; BEAVA damage rating (100=total damage to plant; 0=no damage to plant) [3]: 10; BROTE damage rating (100=total damage to plant; 0=no damage to plant) [1]: 0; BROTE damage rating (100=total damage to plant; 0=no damage to plant) [2]: 0; BROTE damage rating (100=total damage to plant; 0=no damage to plant) [3]: 0; BRSNN damage rating (100=total damage to plant; 0=no damage to plant) [1]: 0; BRSNN damage rating (100=total damage to plant; 0=no damage to plant) [2]: 20; BRSNN damage rating (100=total damage to plant; 0=no damage to plant) [3]: 10; CHEAL damage rating (100=total damage to plant; 0=no damage to plant) [1]: 0; CHEAL damage rating (100=total damage to plant; 0=no damage to plant) [2]: 0; CHEAL damage rating (100=total damage to plant; 0=no damage to plant) [3]: 40; GALAP damage rating (100=total damage to plant; 0=no damage to plant) [1]: 0; GALAP damage rating (100=total damage to plant; 0=no damage to plant) [2]: 0; GALAP damage rating (100=total damage to plant; 0=no damage to plant) [3]: 20; HORVW damage rating (100=total damage to plant; 0=no damage to plant) [1]: 0; HORVW damage rating (100=total damage to plant; 0=no damage to plant) [2]: 0; HORVW damage rating (100=total damage to plant; 0=no damage to plant) [3]: 40; KCHSC damage rating (100=total damage to plant; 0=no damage to plant) [1]: 0; KCHSC damage rating (100=total damage to plant; 0=no damage to plant) [2]: 0; KCHSC damage rating (100=total damage to plant; 0=no damage to plant) [3]: 0; LOLPE damage rating (100=total damage to plant; 0=no damage to plant) [1]: 0; LOLPE damage rating (100=total damage to plant; 0=no damage to plant) [2]: 0; LOLPE damage rating (100=total damage to plant; 0=no damage to plant) [3]: 10; POAAN damage rating (100=total damage to plant; 0=no damage to plant) [1]: 0; POAAN damage rating (100=total damage to plant; 0=no damage to plant) [2]: 30; POAAN damage rating (100=total damage to plant; 0=no damage to plant) [3]: 40; POLCO damage rating (100=total damage to plant; 0=no damage to plant) [1]: 0; POLCO damage rating (100=total damage to plant; 0=no damage to plant) [2]: 0; POLCO damage rating (100=total damage to plant; 0=no damage to plant) [3]: 0; SINAR damage rating (100=total damage to plant; 0=no damage to plant) (SINAR, "Cereals" Postemergent, Rates 500, evaluated after 15 d): 20; STEME damage rating (100=total damage to plant; 0=no damage to plant) [1]: 0; STEME damage rating (100=total damage to plant; 0=no damage to plant) [2]: 0; STEME damage rating (100=total damage to plant; 0=no damage to plant) [3]: 0; VERPE damage rating (100=total damage to plant; 0=no damage to plant) [1]: 0; VERPE damage rating (100=total damage to plant; 0=no damage to plant) [2]: 0; VERPE damage rating (100=total damage to plant; 0=no damage to plant) [3]: 10; damage to plant (100=total damage to plant; 0=no damage to plant), ABUTH (rate 130, evaluated after 15 d): 0; damage to plant (100=total damage to plant; 0=no damage to plant), ABUTH (rate 250, evaluated after 15 d): 10; damage to plant (100=total damage to plant; 0=no damage to plant), ABUTH (rate 500, evaluated after 15 d): 20; damage to plant (100=total damage to plant; 0=no damage to plant), AMARE (rate 130, evaluated after 15 d): 0; damage to plant (100=total damage to plant; 0=no damage to plant), AMARE (rate 250, evaluated after 15 d): 10; damage to plant (100=total damage to plant; 0=no damage to plant), AMARE (rate 500, evaluated after 15 d): 20; damage to plant (100=total damage to plant; 0=no damage to plant), BIDPI (rate 130, evaluated after 15 d): 0; damage to plant (100=total damage to plant; 0=no damage to plant), BIDPI (rate 250, evaluated after 15 d): 0; damage to plant (100=total damage to plant; 0=no damage to plant), BIDPI (rate 500, evaluated after 15 d): 10; damage to plant (100=total damage to plant; 0=no damage to plant), BRAPL (rate 130, evaluated after 15 d): 60; damage to plant (100=total damage to plant; 0=no damage to plant), BRAPL (rate 250, evaluated after 15 d): 70; damage to plant (100=total damage to plant; 0=no damage to plant), BRAPL (rate 500, evaluated after 15 d): 80; damage to plant (100=total damage to plant; 0=no damage to plant), CYPES (rate 130, evaluated after 15 d): 0; damage to plant (100=total damage to plant; 0=no damage to plant), CYPES (rate 250, evaluated after 15 d): 0; damage to plant (100=total damage to plant; 0=no damage to plant), CYPES (rate 500, evaluated after 15 d): 0; damage to plant (100=total damage to plant; 0=no damage to plant), DIGSA (rate 130, evaluated after 15 d): 60; damage to plant (100=total damage to plant; 0=no damage to plant), DIGSA (rate 250, evaluated after 15 d): 70; damage to plant (100=total damage to plant; 0=no damage to plant), DIGSA (rate 500, evaluated after 15 d): 80; damage to plant (100=total damage to plant; 0=no damage to plant), ECHCG (rate 130, evaluated after 15 d): 10; damage to plant (100=total damage to plant; 0=no damage to plant), ECHCG (rate 250, evaluated after 15 d): 20; damage to plant (100=total damage to plant; 0=no damage to plant), ECHCG (rate 500, evaluated after 15 d): 70; damage to plant (100=total damage to plant; 0=no damage to plant), ELEIN (rate 130, evaluated after 15 d): 10; damage to plant (100=total damage to plant; 0=no damage to plant), ELEIN (rate 250, evaluated after 15 d): 10; damage to plant (100=total damage to plant; 0=no damage to plant), ELEIN (rate 500, evaluated after 15 d): 60; damage to plant (100=total damage to plant; 0=no damage to plant), EPHHL (rate 130, evaluated after 15 d): 0; damage to plant (100=total damage to plant; 0=no damage to plant), EPHHL (rate 250, evaluated after 15 d): 10; damage to plant (100=total damage to plant; 0=no damage to plant), EPHHL (rate 500, evaluated after 15 d): 30; damage to plant (100=total damage to plant; 0=no damage to plant), GLXMA (rate 130, evaluated after 15 d): 0; damage to plant (100=total damage to plant; 0=no damage to plant), GLXMA (rate 250, evaluated after 15 d): 0; damage to plant (100=total damage to plant; 0=no damage to plant), GLXMA (rate 500, evaluated after 15 d): 20; damage to plant (100=total damage to plant; 0=no damage to plant), IPOHE (rate 130, evaluated after 15 d): 0; damage to plant (100=total damage to plant; 0=no damage to plant), IPOHE (rate 250, evaluated after 15 d): 0; damage to plant (100=total damage to plant; 0=no damage to plant), IPOHE (rate 500, evaluated after 15 d): 20; damage to plant (100=total damage to plant; 0=no damage to plant), ORYSA (rate 130, evaluated after 15 d): 0; damage to plant (100=total damage to plant; 0=no damage to plant), ORYSA (rate 250, evaluated after 15 d): 0; damage to plant (100=total damage to plant; 0=no damage to plant), ORYSA (rate 500, evaluated after 15 d): 10; damage to plant (100=total damage to plant; 0=no damage to plant), PANMI (rate 130, evaluated after 15 d): 0; damage to plant (100=total damage to plant; 0=no damage to plant), PANMI (rate 250, evaluated after 15 d): 10; damage to plant (100=total damage to plant; 0=no damage to plant), PANMI (rate 500, evaluated after 15 d): 40; damage to plant (100=total damage to plant; 0=no damage to plant), SETFA (rate 130, evaluated after 15 d): 0; damage to plant (100=total damage to plant; 0=no damage to plant), SETFA (rate 250, evaluated after 15 d): 50; damage to plant (100=total damage to plant; 0=no damage to plant), SETFA (rate 500, evaluated after 15 d): 70; damage to plant (100=total damage to plant; 0=no damage to plant), SORVU (rate 130, evaluated after 15 d): 0; damage to plant (100=total damage to plant; 0=no damage to plant), SORVU (rate 250, evaluated after 15 d): 0; damage to plant (100=total damage to plant; 0=no damage to plant), SORVU (rate 500, evaluated after 15 d): 20
